For 39 molecules, cytotoxicity results are on record in ChEMBL document CHEMBL3507680, “University of Dundee, Gates Library screen for HepG2 cell viability”.

The nature of this data set: Human HepG2 cell viability assay in 384 well format. Type of data set: toxicity, cell-based. More on the design: dose 125 nL, time 70.5 hour; cytotoxicity at 70.5 h: concentration not given beside the values. Particulars: HepG2 cells, read-out: Inhibition.
Turning to `CNC(=O)[C@@H]1C[C@@H](N)CN1C(=O)CCSCc1ccccc1`, the cytotoxicity at 70.5 h is -4.11%.
On to `CCN1CC2(CCN(CC3COCCO3)CC2)OC1=O` (centres undefined), for which the cytotoxicity at 70.5 h is 44.4%.
`CCc1ccc(OCC(=O)N2CCN(CC)CC2)cc1`: the cytotoxicity at 70.5 h was -6.61%.
On to `CN(Cc1cccnc1)CC1CCOc2ccccc2C1` (centres undefined), for which the cytotoxicity at 70.5 h was -5.68%.
With `COCCn1ccnc1C1CCCN(C(=O)c2cccnc2SC)C1` (centres undefined), the cytotoxicity at 70.5 h came to 13%.
Turning to `Cc1ccc2nc(C3CCCN3C(=O)c3cc(=O)[nH]c(=O)[nH]3)[nH]c2c1` (centres undefined), the cytotoxicity at 70.5 h was determined as 30.8%.
Turning to `O=C1[C@@H]2CN(c3ncc(Cl)cc3F)C[C@]2(C(=O)O)CN1CC1CC1`, the cytotoxicity at 70.5 h was -5.98%.
The figure for `CC(C)(O)CCc1cccc(C(=O)N[C@@H](CO)C(N)=O)c1` is 3.89%.
Regarding `Cc1cc(-c2n[nH]c3c2CN(S(=O)(=O)c2ccsc2)CC3)c(C)o1`, the cytotoxicity at 70.5 h was -9.27%.
`COc1ccc(OCc2cc(C(=O)N3CC=CC3)n[nH]2)c(Cl)c1`: the cytotoxicity at 70.5 h is -3%.
The figure for `O=C(CN1CCOc2ccccc2C1)NCc1cc2n(n1)CCCNC2` is -2.45%; for `COc1ccccc1OCc1cc(C(=O)N2CCC(C(C)O)CC2)n[nH]1` (centres undefined) it is -5.66%.
Regarding `COc1cccc2c1OCC(CNC(=O)COCC(F)(F)C(F)F)C2` (centres undefined), the cytotoxicity at 70.5 h was determined as 8.83%.
As for `COCCc1noc(Cn2ccc3ccccc3c2=O)n1`, the cytotoxicity at 70.5 h is -0.672%.
Take `CCOC(=O)N1CCN(CC(=O)Nc2nnc(CC)s2)CC1`: the cytotoxicity at 70.5 h is -4.24%.
The figure for `O=C(O)C(c1ccc2c(c1)OCCO2)N1CCC(N2CCOCC2)CC1` (centres undefined) is 0.0244%; for `CCc1nnc(CNC(=O)CCC2CCCCN2C)s1` (centres undefined) it is 6.71%; for `Cc1nsc(NC(=O)N2CCCCC2CCCO)n1` (centres undefined) it is -1.47%.
For the molecule `Cc1cc(C2CCC2)nc(N2CCC3(CCCNC3=O)C2)n1` (centres undefined), the cytotoxicity at 70.5 h is -18.8%.
The figure for `Cc1oc(C(C)C)cc1C(=O)N1CCN(c2cnn(C)c(=O)c2)CC1` is -3.48%; for `c1ccc2c(c1)CC(n1ccnc1-c1cc3n(n1)CCNC3)CO2` (centres undefined) it is 1.41%.
For `COc1ccccc1N1CCN(C(=O)CCn2ccnc2C)CC1(C)C`, the cytotoxicity at 70.5 h is 21.5%.
Regarding `Cc1cc(CN2CCC(c3nccn3C(C)C)CC2)ccc1F`, the cytotoxicity at 70.5 h came to 15.8%.
On to `c1ccc(CCCN2CCCC(Nc3cnc4ccccc4n3)C2)cc1` (centres undefined), for which the cytotoxicity at 70.5 h is -2.78%.
Turning to `Cc1cc(=O)n(CC(=O)NC2CCCCC2)c2ccccc12`, the cytotoxicity at 70.5 h was -8.81%.
For `Cc1nc(CN2CCCN(CCOc3ccc(C#N)cc3)CC2)no1`, the cytotoxicity at 70.5 h is -0.262%.
`CC(C)c1nccn1C1CCCN(C(=O)CN(C)C2CC2)C1` (centres undefined): the cytotoxicity at 70.5 h is -2.03%.
Take `O=C(NCCn1ccnc1)c1ccn(-c2ccc(F)cc2)n1`: the cytotoxicity at 70.5 h is -2.38%.
Take `O=C(NCCn1ccnc1)c1ccn(-c2ccccc2F)n1`: the cytotoxicity at 70.5 h was determined as 13.4%.
As to `CC(C)c1nccn1C1CCCN(C(=O)CCc2cscn2)C1` (centres undefined), the cytotoxicity at 70.5 h is -6.33%.
As for `CC(C)c1nccn1C1CCCN(C(=O)CCCc2ccccn2)C1` (centres undefined), the cytotoxicity at 70.5 h is -10.5%.
Take `Cc1nc(CN2CCCC2c2c(C)nn(C)c2Cl)oc1C` (centres undefined): the cytotoxicity at 70.5 h came to 19.6%.
Take `Cc1noc(C)c1CN1CCCC1c1c(C)nn(C)c1Cl` (centres undefined): the cytotoxicity at 70.5 h is -2.34%.
`O=C(NCC1CCOC1)N1CCN(Cc2ccc3c(c2)OCO3)CC1` (centres undefined): the cytotoxicity at 70.5 h was determined as 3.28%.
Take `O=C(NCC1CCCO1)N1CCN(Cc2ccc3c(c2)CCO3)CC1` (centres undefined): the cytotoxicity at 70.5 h was -9.76%.
`Cc1nc(C(C)(C)C)sc1C(=O)NCCNc1ncccn1`: the cytotoxicity at 70.5 h was -8.27%.
The figure for `Cc1cc(C)c(CNC(=O)N(C)Cc2ccoc2)c(=O)[nH]1` is -2.92%; for `Cc1cc(C)c(CNC(=O)N(C)Cc2ccc(F)cc2)c(=O)[nH]1` it is 18.3%.
In the case of `Cc1cc(C)c(CNC(=O)N(C)Cc2ccc3c(c2)OCO3)c(=O)[nH]1`, the cytotoxicity at 70.5 h was -3.96%.
